# Laboratory results published in patent publication US20240033319A1, “PEPTIDES FOR PREVENTING OR TREATING HEART AND BLOOD VESSEL DISEASES” (RD NÉPHROLOGIE, priority 2020, published 2024).
# No end group written: not given here.
# What was measured:
# rat aortic rings = conditions: for effect on calcium content / calcification of rat aortic rings: peptide fragment 100 nmol L^−1, 7 days
# [1] = system: human aortic smooth muscle cells (hAoSMCs); assay: Calcification of cultivated human aortic smooth muscle cells in calcifying medium (Ca2+ content); format: cell-based; conditions: for effect on calcium content / calcification of hAoSMCs: peptide fragment 100 nmol L^−1, 7 days
# Description: Cell culture and calcification induction in human aortic smooth muscle cells: Human aortic smooth muscle cells (hAoSMCs) (Promocell, Heidelberg, Germany) were cultivated in smooth muscle cell medium (Promocell, Heidelberg, Germany). The hAoSMCs were seeded in 48 well plates (5×10^3 cells/well) at 80% confluence. Dulbecco's modified Eagle's medium (DMEM) containing 25 mmol L^−1 glucose supplemented with 2.5% fetal calf serum and 2.8 mmol L^−1 phosphate were used to induce calcification (calcifying medium, CM). The calcifying medium was supplemented with CBF (max. concentration 100 pmol L^−1) or CBF fragments (100 nmol L^−1). As reference medium, DMEM containing 25 mmol L^−1 glucose supplemented with 2.5% fetal calf serum and 0.9 mmol L^−1 phosphate were used (non-calcifying medium, NCM). The hAoSMCs were incubated for 7 days while the incubation medium was replaced after 48 h.
# Measurement of calcium content: For determination of calcium content, cells or aortic rings were washed 3 times with PBS without calcium. Aortic rings were dried and weighed. Dried aortic rings and cells were decalcified with 0.1 M HCl for 24 h, and the calcium content in the supernatant was determined by the o-cresolphthalein complexone method (Clinical Chemistry Assay Kit/Calcium, County Antrim, UK) according to the manufacturer's protocol. Cell content was extracted in 0.1 M NaOH 0.1% sodium dodecyl sulfate (SDS), and protein content was measured by the bicinchoninic acid (BCA) protein assay method (Thermo Fisher Scientific, Germany). The calcium content was normalized to total protein for cells or dry weight for aortic rings.
# VDN rats = assay: VDN (vitamin D3 plus nicotine) rat model of elastocalcinosis: aortic calcium, von Kossa staining, pulse pressure; format: in vivo; conditions: for pulse pressure (Example 3 peptide comparison) / calcified surface of the aortas, Von Kossa staining (Example 3 peptide comparison) / calcium content of the aortas (Example 3 peptide comparison): VDN animals, versus control animals; for pulse pressure (Example 3 peptide comparison): FIG. 5a; for calcified surface of the aortas, Von Kossa staining (Example 3 peptide comparison): FIG. 5b; for calcium content of the aortas (Example 3 peptide comparison): FIG. 5c
# Description: Ex vivo and calcification of rat aortic rings: The thoracic aorta of 8-13 weeks old male Wistar-rats were gently dissected and were cut in 3-4 mm segments. The endothelial layer of the aortic ring was manually damaged by scratching using a conventional pipette tip. The aortic rings were incubated with DMEM containing 25 mmol L^−1 glucose supplemented with 2.5% fetal calf serum and 2.8 mmol L^−1 phosphate to induce calcification. The calcification medium was supplemented with CBF (max. concentration 1 μmol L^−1) or CBF fragments (100 nmol L^−1). As reference medium, DMEM containing 25 mmol L^−1 glucose supplemented with 2.5% fetal calf serum and 0.9 mmol L^−1 phosphate were used (non-calcifying medium, NCM). The aortic rings were incubated for 7 days while the medium was replaced after 48 h. Effect of CBF in an animal model with enhanced arterial calcification: An animal model of elastocalcinosis with proven increased arterial calcification (Niederhoffer et al., “Aortic calcification produced by vitmin D3 plus nicotine”, J. Vasc. Res. 34, 386-98, 1997) was chosen to assay the effects of CBF in vivo. Animal experiments were approved by the regional ethics committee “Comité d'éthique pour I'expérimentation animale Languedoc Roussillon N°36”, with the agreement number APAFIS 2018072715539434#17270v4, and conformed to the Guide for the Care and Use of Laboratory Animals, NIH (National Academies Press US, 8th edition, 2011). Three groups of 6 weeks old Wistar rats (Charles River Laboratories, L'Arbresle, France) were given a regular rat chow (A04, Safe, Villemoisson-sur-Orge, France) and spring water (Mont Roucous®, France; calcium 60 μM) ad libitum for one week before experiments. Two groups received CBF (31 μg kg^−1 per day) or its vehicle (saline) infused through an osmotic pump (Alzet 2004, Charles River, France) implanted under the skin. CBF treatment was initiated 3 or 4 days before induction of elastocalcinosis (vitamin D3 plus nicotine, or VDN rats) with a single injection of vitamin D3 (300,000 IU kg^−1, i.m.) and two gavages of nicotine (25 mg kg^−1, 5 ml kg^−1) on the same day, as previously described ^47.
# Untreated rats served as control rats (sham operation and saline administration). Four weeks later, rats were anaesthetized (ketamine-xylazine), and a catheter was inserted into the right carotid artery for blood pressure measurement. After 10-15 min of equilibration, systolic, diastolic, mean arterial, and pulse (systolic-diastolic) pressures were determined. The aorta was gently dissected, adventitial fat removed, and cut into segments (3-4 mm) for further analysis.
# Histological calcification staining and immunofluorescence staining: Aortic rings were placed in 1 ml of 4% formaldehyde for 1 h to prepare for histological and immunohistochemical staining. The rings were dehydrated and embedded in paraffin and 5 μm slices were prepared by a microtome (Leica RM 2250, Wetzlar, Germany). The slices were placed on a glass slide, deparaffinized in xylene, and dehydrated in decreasingly concentrated sopropanol solutions before staining. Von Kossa staining was performed to visualize calcified areas of the aortic rings. The aortic ring slides were incubated with 5% silver nitrate in the presence of UV light at 405 nm for 1 h, washed three times with double-distilled water (ddH2O), incubated in the presence of 5% sodium thiosulfate in water for 1 min, and washed three times with ddH2O. Next, nuclear fast red (Merck; Darmstadt, Germany) was added to the slides for 5 min. The slides were then rinsed, dehydrated with ethanol, incubated for 5 min in xylol, and covered with Vitro-Clud (R. Langenbrinck; Emmendingen, Germany). For immunohistochemical analyses, sections were blocked with blocking solution (1% bovine serum albumin (BSA)) for 30 min at room temperature. […]
Substance,effect on calcium content / calcification of rat aortic rings (rat aortic rings; calcifying medium),effect on calcium content / calcification of hAoSMCs [1],further results
"EEDN (listed as Homo sapiens) [CBF 07-10, amino acids 7-10 of CBF]",inhibitory effect on vascular calcification,inhibitory effect on vascular calcification,–
"QEEE (listed as Homo sapiens) [CBF 04-07, amino acids 4-7 of CBF]",strongest inhibition,strongest inhibition,–
"LEGQEEEEDNRDSSMKLSF [CBF, LEGQE EEEDN RDSSM KLSF]",–,–,"EC50 (rat aortic rings): ~0.1 nM; threshold concentration for reducing calcification of rat aortic rings (rat aortic rings; aortic rings ex vivo, calcifying medium, 7 days, Ca content): ~0.01 nmol/L; reduction in the calcified area of aortic rings (von Kossa staining) (rat aortic rings; calcifying medium, CBF 100 nM): 40%; Ca2+ content in vessels of treated VDN rats compared to untreated animals (VDN rats; 31 μg kg^−1 per day via osmotic pump for 4 weeks): significantly reduced; pulse pressure (Example 3 peptide comparison) (VDN rats): significantly lower pulse pressure; calcified surface of the aortas, Von Kossa staining (Example 3 peptide comparison) (VDN rats): decreased calcified surface; calcium content of the aortas (Example 3 peptide comparison) (VDN rats): decrease in calcium content; reduction of pulse pressure (VDN rats; VDN rats, 31 μg kg^−1 per day for 4 weeks): 63%; decrease of calcified surface of aorta (von Kossa staining) (VDN rats; VDN rats, 31 μg kg^−1 per day via osmotic pump for 4 weeks): 70%; pulse pressure (VDN rats; VDN rats, chronic treatment 4 weeks, untreated VDN 81±6): 53±3; arterial pressure in VDN animals (VDN rats; chronic treatment in vivo, 4 weeks): significant decrease; threshold concentration for decreasing calcification in hAoSMCs ([1]; hAoSMCs, 7 days, Ca2+ content): ~1 amol L^−1"
"EGQE (listed as Homo sapiens) [CBF 02-05, amino acids 2-5 of CBF]",inhibitory effect on vascular calcification,inhibitory effect on vascular calcification,–
CBF2: CBF fragment comprising the amino acids 11-19 (RDSSMKLSF; listed as Homo sapiens),no significant effect,no significant effect,"pulse pressure (Example 3 peptide comparison) (VDN rats): no effect; calcified surface of the aortas, Von Kossa staining (Example 3 peptide comparison) (VDN rats): no effect; calcium content of the aortas (Example 3 peptide comparison) (VDN rats): no effect"
"EEEDN RDSSM (EEEDNRDSSM; listed as Homo sapiens) [CBF fragment 06-15, amino acids 06-15 of CBF]",no significant effect,no significant effect,–
"EEED (listed as Homo sapiens) [CBF 06-09, amino acids 6-9 of CBF]",strongest inhibition,strongest inhibition,–
"LEGQ (listed as Homo sapiens) [CBF 01-04, amino acids 1-4 of CBF]",inhibitory effect on vascular calcification,inhibitory effect on vascular calcification,–
"GQEE (listed as Homo sapiens) [CBF 03-06, amino acids 3-6 of CBF]",inhibitory effect on vascular calcification,inhibitory effect on vascular calcification,–
"LEGQE (listed as Homo sapiens) [CBF 01-05, amino acids 1-5 of CBF]",significant reduction of calcification,significant reduction of calcification,–
"EEEE (listed as Homo sapiens) [CBF 05-08, amino acids 5-8 of CBF]",strongest inhibition,strongest inhibition,–
"LEGQE EEEDN (LEGQEEEEDN; listed as Homo sapiens) [CBF1, amino acids 1-10 of CBF]",significantly decreased the calcium content,significantly decreased the calcium content,"calcified surface of the aortas, Von Kossa staining (Example 3 peptide comparison) (VDN rats): even more pronounced decrease; calcium content of the aortas (Example 3 peptide comparison) (VDN rats): even more pronounced decrease"
"EEEDN (listed as Homo sapiens) [CBF 06-10, amino acids 6-10 of CBF]",significant reduction of calcification,significant reduction of calcification,–
